Test results: patent publication US20130085146A1, “LIPID-DRUG FORMULATIONS AND METHODS FOR TARGETED DELIVERY OF LIPID-DRUG COMPLEXES TO LYMPHOID TISSUES” (priority 2003, published 2013)
Entries after “also recorded” stand apart in the source; their conditions may differ. Where a name gives a salt, the structure may show the parent alone. Read-outs that look alike come from different tables or passages of the source.

Experiments:
[1] = Degree of drug incorporation into lipid-drug complex (size-exclusion chromatography); type: physicochemical; settings: for Degree of Lipid Association (% total): drug associated with lipid membranes, pH 7.4
Description: (§1) The mixture was rotor-evaporated under N2 and reduced pressure. Then it was resuspended in sterile phosphate-buffered saline (PBS, pH 7.4), to a final lipid concentration of 50 mM, and homogenized with a probe sonicator until a uniform particle size of about 50 nm to about 80 nm diameter was reached. Sonication is preferably done until sonicated unilamellar vesicles that are stable at their minimum diameter are obtained. […] The size and zeta potential (surface potential at hydrodynamic plane) of the lipid-drug complex was monitored using a Malvern Zetasizer 5000 operating at photon correlation spectroscopy mode and electrophoretic mode, respectively. […] The rest of the preparation procedure remains the same.
The degree of drug incorporation into the lipid-drug complex was determined by subjecting a small fraction of the preparation to size-exclusion chromatography using a Biogel A-0.5 M media (1×10 cm). […] By analyzing the amount of fraction in the lipid-associated complex, and free form with respect to the total amount loaded onto the column, the percentage of drug association was determined. (Lian, T. and Ho, R. J. Y., Recent trend and progress in liposome drug delivery systems; an invited minireview, J Pharm Sci 90:667-680 [2001]). To determine pH-dependent drug dissociation from the lipid-drug complex, the lipid-drug complex (originally prepared in pH 7.4 and free of unincorporated drug) can be incubated at, e.g., pH 7, 6, 5.5, 5, 4, 3.5 for 30 min. Subsequently, the mixture can be subjected to the degree of drug incorporation analysis described above. For animal studies, the drug-lipid complex formulations were further analyzed for sterility and endotoxin contamination. To ensure sterility and prevent underestimation of endotoxin that binds to lipids, the lipid-drug complex preparations were subjected to a blood agar culture test for 7 days at 37° C. for detection of microbial contamination.
Subsequently, the % lipid-association was determined by separating free from lipid-associated drug by size-exclusion column chromatography. Data expressed were means of duplicate preparations for indicated pH value.

[2] = Particle size of lipid-drug complex (photon correlation spectroscopy); type: physicochemical; settings: drug associated with lipid membranes, pH 7.4
Description: as §1

[3] = cited from earlier work
HIV-2287 [4] = test: microbe, parasite or virus in culture; type: cell-based, HIV-2
Description: (§2) The effective concentrations that produce half the maximum anti-HIV activity (EC50) were determined based on non-linear regression of each set of data, representing the frequency of replication.
After incubating the cells at 37° C. in RPMI 1640 containing 10% fetal calf serum for 4 days (optimum detection time), the presence of virus-infected cells was determined visually by the presence of syncytia and was subsequently confirmed by ELISA detection of the presence of HIV-2 antigen. Experiments were repeated on at least two different days with each determination done in quadruplicate samples, and the data presented in FIG. 3 are the mean % virus-infected cells.

HIV-1LAV = test: Inhibition of HIV-1LAV replication in human PBMCs (p24 antigen); type: cell-based; settings: Human immunodeficiency virus 1, PBMC
Description: as §2

[5] = Indinavir accumulation in lymph nodes after oral free indinavir; type: in vivo, macaques; settings: macaque; for Kp at […]: po, 25 mg/kg; for Kp at […] / Kp at 2 hr / Kp at 3.75 hr: read-out: Lymph node to plasma ratio; for Kp at 2 hr / Kp at 3.75 hr: oral 25 mg/kg; for Kp at 2 hr / concentration at 2 hr: animal 94094; for Kp at 3.75 hr / concentration at 3.75 hr: animal 94096; for concentration at 2 hr / concentration at 3.75 hr: oral 25 mg/kg in solution
HIV-2287 [6] = type: in vivo, Macaca nemestrina; settings: for CD4+ T cell, After: after therapy; for CD4+ T cell, After / CD4+ T cell, Before: SC 22 mg/kg daily, 14 doses; for CD4+ T cell, Before: before therapy
Description: Total RNA was isolated from plasma and lymphoid tissues using a Purescript RNA Isolation Kit (Gentra Systems, Minneapolis, Minn.). Viral RNA was measured using a quantitative, internally-controlled RNA PCR to estimate the number of HIV-2 copies/ml of sample (Watson A, Ranchalis J, Travis B, et al., Plasma viremia in macaques infected with simian immunodeficiency virus: plasma viral load early in infection predicts survival, J Virol 1997;71 (1):284-90) for some of the experiments and real-time quantitative PCR. The two methods have been validated to ensure consistency in estimating viral RNA concentration in plasma and tissues. Briefly, reverse transcription and PCR were performed as described. Because semi-quantitative methods have been well-documented (Watson, et al., 1997), only details on RT-QPCR are described below.
Lymphocyte subset analysis: Fluorescent labeled monoclonal antibodies to lymphocyte surface markers were used to quantitate populations of T cells (CD2+), helper T cells (CD4^+), suppressor T cells (CD8^+), and B cells (CD20^+) in maternal (1 ml) and fetal (150 μl) blood using procedures previously described (Ho R J, Agy M B, Morton W R, et al. Development of a chronically catheterized maternal-fetal macaque model to study in utero mother-to-fetus HIV transmission: a preliminary report. J Med Primatol 1996;25 (3):218-24).
Plasma cholesterol level was monitored to evaluate the effects of cholesterol given as a part of lipid formulation.

HIV-2287 [7] = test: In situ hybridization of lymph node sections for HIV-2 RNA; type: in vivo, Macaca nemestrina; settings: for viral RNA in lymph nodes: 20 mg/kg for 14 days, necropsy day 20
Description: Histological analysis of HIV-infected cells: Histologic sections of lymph node were examined using in situ hybridization for HIV-2 gag RNA. Biopsy and postmortem tissues were preserved in fresh 4% deionized paraformaldehyde, embedded in paraffin wax, and sectioned to 5 μm. The sections were deparaffinized, rehydrated in Tris-buffered saline (TBS; 0.1 M Tris [pH 7.5], 0.1 M NaCl), digested with proteinase K (20-40 μg/ml, 37° C., for 30-50 min; Sigma), and treated overnight at 37° C. in a RNase-free DNase-1 solution (Boehringer Mannheim), as described previously.
The sections were then incubated for 5 min at 70° C. followed by 4 h at 42° C. with antisense RNA probes directed either to SW (strain mac251; Zhang Z Q, Schuler T, Cavert W, et al. Reversibility of the pathological changes in the follicular dendritic cell network with treatment of HIV-1 infection. Proc Nati Acad Sci U S A 1999;96 (9):5169-72) or HIV-2 gag-pol (stain 287; gag 2639-1080, pol 3473-2306; Galabru J, Rey-Cuille M A, Hovanessian A G. Nucleotide sequence of the HIV-2 EHO genome, a divergent HIV-2 isolate. AIDS Res Hum Retroviruses 1995;11 [7]:873-4). The RNA probes were constructed by cloning cDNA into transcription vectors under the control of T7 and SP6 RNA polymerase promoters (pGEM, Promega; Madison, Wis.). […] HIV-2 RNA was detected after autoradiographic exposures of 24 and 96 h.
The presence of viral RNA was indicated by deposition of silver grains on top of cells or as aggregates within lymph node germinal centers (FIG. 7) at a frequency statistically greater than background, as determined using Image-Pro® Plus software (Media Cybernetics, Silver Spring, Md.). Nonspecific background was determined in two ways with equivalent results. Silver grains were counted over 100 germinal center cells in tissue sections from mock-inoculated uninfected animals after hybridization to the HIV-2 or SIV antisense probe, or over cells from the tissues of infected monkeys after hybridization to noncomplimentary ‘sense’ RNA probes. […]

[8] = SC 10 mg/kg single dose
Description: These samples were resuspended in 100 μL, and a 10 μL sample was injected onto an RX-C8 column (21 mm×15 cm column) and eluted isocratically with a mobile phase containing 20 mM ammonium acetate in acetonitrile:water (65:35, v/v) running at 0.38 ml/min. […] Under these conditions, the detection limit was 100 pg, which made it possible to measure drug levels, extract RNA and DNA, isolate cells for detailed analyses of vRNA and vDNA-infected cells in lymph nodes, and fix the tissue for pathological analyses from limited sample size.

[9] = Example 10; SC 20 mg/kg/day, two animals
[10] = cited from earlier work; remark: listed apart in the source
[11] = axillary lymph node / plasma, axillary
[12] = inguinal lymph node / plasma, inguinal
[13] = neutral pH, listed as tenofovir

Cc1c(O)cccc1C(=O)N[C@@H](CSc1ccccc1)[C@H](O)CN1C[C@H]2CCCC[C@H]2C[C@H]1C(=O)NC(C)(C)C (relative stereo) [Nelfinavir, [3S-[2(2S*, 3S*), 3a,4ab,8ab]]-N-(1,1-dimethylethyl)decahydro-2-[2-hydroxy-3-[(3-hydroxy-2-methylbenzoyl)amino]-4-(phenylthio)butyl]-3-isoquinolinecarboxamide mono-methanesulfonate (salt)]
% Associated with lipid-drug nanoparticles: Nelfinavir ([1]; DSPC:mPE-DSPE formulation): 100 ± 9.8% | Degree of Lipid Association (% total) [1]: 100.5 ± 9.8 % total | incorporation into lipid-drug complexes (in words) ([1]; neutral pH): incorporate nearly completely; also recorded: high degree of lipid association | Size in Diameter [2]: 123 ± 16 nm | solubility in methanol, ethanol, isopropanol and propylene glycol [3]: freely soluble | solubility in water ([3]; pH<4): slightly soluble

CC(C)(C)NC(=O)[C@@H]1CN(Cc2cccnc2)CCN1C[C@@H](O)C[C@@H](Cc1ccccc1)C(=O)N[C@H]1c2ccccc2C[C@H]1O [Indinavir, N-(2(R)-hydroxy-1(S)-indanyl)-2(R)-phenylmethyl-4-(S)-hydroxy-5-(1-(4-(3-pyridyl-methyl)-2(S)-N′-(t-butylcarboxamido)-piperazinyl))-pentaneamide]
% Associated with lipid-drug nanoparticles: Indinavir ([1]; DSPC:mPE-DSPE formulation): 97.5 ± 2.50% | Degree of Lipid Association (% total) [1]: 97.5 ± 2.5 % total | incorporation into lipid-drug complexes (in words) ([1]; neutral pH): completely or nearly completely; also recorded: incorporate nearly completely | indinavir preparation incorporated in lipid-indinavir complex ([1]; neutral pH, lipid-to-drug molar ratio about 5:1 to about 10:1): 80-100% | drug incorporated into the lipid bilayer of liposomes ([1]; pH 4, lipid-to-drug ratio 5:1 (m/m)): < 30% | drug associated with liposome ([1]; pH 7.4, lipid-to-drug ratio 5:1 (m/m)): 85-95% | Size in Diameter [2]: 69 ± 7 nm | EC50 (HIV-2287 [4]; Human immunodeficiency virus 2, CEM174, 96 h, read-out: EC50 (50% effective inhibitory concentration)): 50 to 80 nM | EC50 (HIV-2287 [4]; Human immunodeficiency virus 2, CEM174, read-out: in vitro ED50 against HIV-2287): 60 to 80 nM | EC50 (HIV-1LAV; CD8-depleted human PBMCs, HIV-1 p24 antigen): > 150 nM | inhibition at 15 µM (HIV-1LAV; at 15 μM): < 100% | Kp at […] ([5]; axillary lymph node / plasma): 0.01 | Kp at 2 hr [5, 11]: 0.02 | Kp at 3.75 hr [5, 11]: 0.0035 | concentration at 2 hr ([5]; axillary lymph node, axillary): 0.084 ng/mL | concentration at 3.75 hr ([5]; axillary lymph node, axillary): 0.141 ng/mL | Kp at […] ([5]; inguinal lymph node / plasma): 0.03 | Kp at 2 hr [5, 12]: 0.01 | Kp at 3.75 hr [5, 12]: 0.01 | concentration at 2 hr ([5]; inguinal lymph node, inguinal): 0.056 ng/mL | concentration at 3.75 hr ([5]; inguinal lymph node, inguinal): 0.481 ng/mL | concentration at 2 hr ([5]; plasma): 5.2 ng/mL | concentration at 3.75 hr ([5]; plasma): 39.8 ng/mL | plasma virus load (HIV-2287 [6]; Example 10: SC 20 mg/kg/day for 14 days, 30 weeks post-infection): did not exhibit a significant virus load reduction | CD4+ T cells after two weeks of treatment (in words) (HIV-2287 [6]; four HIV-2287-infected animals, Table 5): the same pattern was not observed | CD4+ T cell, After (HIV-2287 [6]; macaque 215): 1473 per μL | CD4+ T cell, Before (HIV-2287 [6]; macaque 215): 1946 per μL | CD4+ T cell, After (HIV-2287 [6]; macaque 283): 1051 per μL | CD4+ T cell, Before (HIV-2287 [6]; macaque 283): 1650 per μL | HIV-2 RNA in lymph node germinal centers (in words) (HIV-2287 [7]; axillary and mesenteric lymph nodes): showed aggregates of HIV-RNA in lymph node germinal centers | viral RNA in lymph nodes (HIV-2287 [7]; macaque 215): 13,290±1,450 gag-pol RNA copies/50× field | viral RNA in lymph nodes (HIV-2287 [7]; macaque 283): 8,134±890 gag-pol RNA copies/50× field | time of plasma drug concentration peak [8]: 0.5 to 1 h | time by which drug levels subsided below detectable levels [9]: 4 to 5 h | LogP (lipophilicity) ([10]; pH 3.5): 0 | LogP (lipophilicity) ([10]; pH 5): 1.8 | LogP (lipophilicity) ([10]; pH 7): 3

Cc1cccc(C)c1OCC(=O)N[C@@H](Cc1ccccc1)[C@@H](O)C[C@H](Cc1ccccc1)NC(=O)[C@H](C(C)C)N1CCCNC1=O [Lopinavir]
% Associated with lipid-drug nanoparticles: Lopinavir ([1]; DSPC:mPE-DSPE formulation): 100 ± 0.9%

CC(C)c1nc(CN(C)C(=O)N[C@H](C(=O)N[C@@H](Cc2ccccc2)C[C@H](O)[C@H](Cc2ccccc2)NC(=O)OCc2cncs2)C(C)C)cs1 [Ritonavir]
% Associated with lipid-drug nanoparticles: Ritonavir ([1]; DSPC:mPE-DSPE formulation): 100 ± 1.0%

CC(C)(C)NC(=O)[C@@H]1C[C@@H]2CCCC[C@@H]2CN1C[C@@H](O)[C@H](Cc1ccccc1)NC(=O)[C@H](CC(N)=O)NC(=O)c1ccc2ccccc2n1 [Saquinavir, N-tert-butyl-decahydro-2-[2(R)-hydroxy-4-phenyl-3(S)-[[N-(2-quinolylcarbonyl)-L-asparaginyl]-amino]butyl]-(4aS,8aS)-isoquinoline-3 (S)-carboxamide]
% Associated with lipid-drug nanoparticles: Saquinavir ([1]; DSPC:mPE-DSPE formulation): 98.9 ± 7.5% | Degree of Lipid Association (% total) [1]: 98.8 ± 7.5 % total | incorporation into lipid-drug complexes (in words) ([1]; neutral pH): incorporate nearly completely; also recorded: high degree of lipid association | Size in Diameter [2]: 159 ± 36 nm

C[C@H](Cn1cnc2c(N)ncnc21)OCP(=O)(O)O [Tenofovir]
incorporation into lipid-drug complexes (in words) ([1]; neutral pH): quite low efficiency | incorporation into lipid-drug complexes (in words) [1, 13]: much lower efficiency | solubility in water ([3]; neutral pH): soluble in water | solubility in water [3, 13]: quite soluble

CC(C)OC(=O)OCOP(=O)(CO[C@H](C)Cn1cnc2c(N)ncnc21)OCOC(=O)OC(C)C.O=C(O)/C=C/C(=O)O [Viread ®, 9-[(R)-2-[[bis[[(isopropoxycarbonyl)oxy]methoxy]phosphinyl]methoxy]propyl]adenine fumarate (1:1)]
Degree of Lipid Association (% total) [1]: 4.2 ± 0.7 % total | Size in Diameter [2]: 60 ± 10 nm

O=C(O)CN(CC(=O)O)Cc1cc2c(cc1O)Oc1cc(O)c(CN(CC(=O)O)CC(=O)O)cc1C21OC(=O)c2ccccc21 [calcein]
incorporation into lipid-drug complexes (in words) ([1]; neutral pH): completely or nearly completely
